Experimental data: patent EP4745137A1 (Gluetacs Therapeutics (Shanghai) Co., Ltd., priority 2023, dated 2025)

Columns and labels:
Type in all cases: cell-based
Conditions in all cases: 24 hours of compound treatment
IKZF2 = target: T1, IKZF2 (Homo sapiens, UniProt Q96SW2+Q9UKS7); experiment: Western-blot assay of substrate protein degradation in hPBMCs, IKZF2
T1 construct: endogenous in cells; host or cells: hPBMCs (Milecell Biotechnologies)
Protocol: (§1) After 24 hours of compounds treatment, cells were harvested and lysed in RIPA protein lysate containing protease inhibitors on ice for 30 min, followed by centrifugation. The supernatant was aspirated as the extracted total cell protein. The protein concentration of the supernatant was determined using the conventional BCA (Bicinchoninic Acid) assay. • (2) To the collected supernatant, 5X SDS sample loading buffer was added, followed by denaturation at 95°C for 5 minutes. The denatured samples were then separated by SDS-PAGE electrophoresis on a polyacrylamide gel, transferred onto a nitrocellulose membrane (0.45 µm NC membrane), blocked with blocking buffer at room temperature for 1 hour, and subjected to antibody incubation and development procedures according to the antibody manufacturer's instructions (Cell Signaling Technology Company). […]
(§2) Target protein remaining (%) refers to the percentage of target protein remaining in cells after treatment with protein degrader compounds.
(§3) Calculation method for target protein remaining (%): Use ImageJ software to measure grayscale values of Western blot bands from drug (protein degrader)-treated samples. The grayscale value of drug-treated bands is divided by that of internal control protein bands, and the resulting quotient is normalized to obtain the relative percentage of remaining target protein after protein degrader treatment. Target protein degradation rate(%) = 1−target protein remaining(%). [formula]

GSPT1 = target: T2, GSPT1 (Homo sapiens, UniProt P15170+Q96SW2); experiment: Western-blot assay of substrate protein degradation in hPBMCs, GSPT1
T2 construct: endogenous in cells; host or cells: hPBMCs (Milecell Biotechnologies)
Protocol: as §1, §2, §3

CK1α = target: T3, CK1α (Homo sapiens, UniProt P48729+Q96SW2); experiment: Western-blot assay of substrate protein degradation in hPBMCs, CK1α
T3 construct: endogenous in cells; host or cells: hPBMCs (Milecell Biotechnologies)
Protocol: as §1, §2, §3

IKZF1 = target: T4, IKZF1 (Homo sapiens, UniProt Q13422+Q96SW2); experiment: Western-blot assay of substrate protein degradation in hPBMCs, IKZF1
T4 construct: endogenous in cells; host or cells: hPBMCs (Milecell Biotechnologies)
Protocol: as §1, §2, §3

WEE1 = target: T5, WEE1 (Homo sapiens, UniProt P30291+Q96SW2); experiment: Western-blot assay of substrate protein degradation in hPBMCs, WEE1
T5 construct: endogenous in cells; host or cells: hPBMCs (Milecell Biotechnologies)
Protocol: as §1, §2, §3

IKZF3 = target: T6, IKZF3 (Homo sapiens, UniProt Q96SW2+Q9UKT9); experiment: Western-blot assay of substrate protein degradation in hPBMCs, IKZF3
T6 construct: endogenous in cells; host or cells: hPBMCs (Milecell Biotechnologies)
Protocol: as §1, §2, §3

[1] = 50 nM and 500 nM tested (concentration behind the class not stated)
[2] = compounds tested at 50 nM and 500 nM (concentration of the table not stated)

T3 sequence (P48729 whole entry): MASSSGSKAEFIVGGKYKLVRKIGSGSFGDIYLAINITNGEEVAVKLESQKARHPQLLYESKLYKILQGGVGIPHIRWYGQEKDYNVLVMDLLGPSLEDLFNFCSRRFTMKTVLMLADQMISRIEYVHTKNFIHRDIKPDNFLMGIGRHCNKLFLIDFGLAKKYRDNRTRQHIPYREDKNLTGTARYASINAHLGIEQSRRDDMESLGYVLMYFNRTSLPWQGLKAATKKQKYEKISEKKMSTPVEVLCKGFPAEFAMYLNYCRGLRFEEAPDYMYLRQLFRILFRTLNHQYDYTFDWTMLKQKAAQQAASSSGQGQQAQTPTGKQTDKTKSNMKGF
T3 sequence (Q96SW2 whole entry): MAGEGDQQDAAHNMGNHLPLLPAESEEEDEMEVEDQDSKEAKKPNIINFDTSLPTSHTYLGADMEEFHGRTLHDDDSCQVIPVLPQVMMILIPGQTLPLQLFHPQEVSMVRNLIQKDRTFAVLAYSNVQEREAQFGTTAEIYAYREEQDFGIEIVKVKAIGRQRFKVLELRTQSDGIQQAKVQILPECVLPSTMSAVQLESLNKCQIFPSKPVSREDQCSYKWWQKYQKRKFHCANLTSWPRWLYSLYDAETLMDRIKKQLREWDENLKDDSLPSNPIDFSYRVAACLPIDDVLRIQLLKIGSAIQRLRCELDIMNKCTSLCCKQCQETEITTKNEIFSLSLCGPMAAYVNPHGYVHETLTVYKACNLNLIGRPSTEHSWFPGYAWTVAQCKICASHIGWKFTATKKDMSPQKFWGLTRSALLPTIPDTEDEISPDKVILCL
T3 sequence (Q16531 whole entry partner): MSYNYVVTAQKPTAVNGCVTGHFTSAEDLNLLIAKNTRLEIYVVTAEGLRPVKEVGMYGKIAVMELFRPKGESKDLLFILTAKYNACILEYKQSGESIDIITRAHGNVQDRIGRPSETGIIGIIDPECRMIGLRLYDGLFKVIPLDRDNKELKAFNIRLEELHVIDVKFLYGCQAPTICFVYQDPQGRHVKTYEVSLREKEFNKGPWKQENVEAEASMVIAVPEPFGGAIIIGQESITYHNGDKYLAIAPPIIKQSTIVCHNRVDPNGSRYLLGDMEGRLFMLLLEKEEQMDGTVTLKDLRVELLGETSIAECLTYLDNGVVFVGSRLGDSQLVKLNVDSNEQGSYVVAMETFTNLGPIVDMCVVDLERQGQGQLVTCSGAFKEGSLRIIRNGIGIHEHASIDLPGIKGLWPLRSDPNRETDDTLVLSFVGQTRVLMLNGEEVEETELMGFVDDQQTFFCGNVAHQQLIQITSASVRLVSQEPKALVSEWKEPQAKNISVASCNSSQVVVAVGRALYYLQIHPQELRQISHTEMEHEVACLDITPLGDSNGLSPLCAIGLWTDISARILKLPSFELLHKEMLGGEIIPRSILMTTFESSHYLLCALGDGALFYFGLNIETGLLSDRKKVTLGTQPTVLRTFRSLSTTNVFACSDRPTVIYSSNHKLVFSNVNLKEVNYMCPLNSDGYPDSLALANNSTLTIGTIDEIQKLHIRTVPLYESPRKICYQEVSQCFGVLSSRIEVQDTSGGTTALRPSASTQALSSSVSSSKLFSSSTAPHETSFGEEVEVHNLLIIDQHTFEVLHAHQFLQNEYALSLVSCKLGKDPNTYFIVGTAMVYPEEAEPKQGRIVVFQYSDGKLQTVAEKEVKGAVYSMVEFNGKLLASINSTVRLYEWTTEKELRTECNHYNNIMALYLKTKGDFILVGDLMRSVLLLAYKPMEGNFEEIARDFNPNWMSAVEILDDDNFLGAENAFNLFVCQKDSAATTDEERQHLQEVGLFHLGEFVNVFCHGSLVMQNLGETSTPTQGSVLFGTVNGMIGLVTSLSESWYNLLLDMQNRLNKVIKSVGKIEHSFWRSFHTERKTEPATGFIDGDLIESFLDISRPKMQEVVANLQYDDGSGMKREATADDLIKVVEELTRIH
T5 sequence (P30291 whole entry): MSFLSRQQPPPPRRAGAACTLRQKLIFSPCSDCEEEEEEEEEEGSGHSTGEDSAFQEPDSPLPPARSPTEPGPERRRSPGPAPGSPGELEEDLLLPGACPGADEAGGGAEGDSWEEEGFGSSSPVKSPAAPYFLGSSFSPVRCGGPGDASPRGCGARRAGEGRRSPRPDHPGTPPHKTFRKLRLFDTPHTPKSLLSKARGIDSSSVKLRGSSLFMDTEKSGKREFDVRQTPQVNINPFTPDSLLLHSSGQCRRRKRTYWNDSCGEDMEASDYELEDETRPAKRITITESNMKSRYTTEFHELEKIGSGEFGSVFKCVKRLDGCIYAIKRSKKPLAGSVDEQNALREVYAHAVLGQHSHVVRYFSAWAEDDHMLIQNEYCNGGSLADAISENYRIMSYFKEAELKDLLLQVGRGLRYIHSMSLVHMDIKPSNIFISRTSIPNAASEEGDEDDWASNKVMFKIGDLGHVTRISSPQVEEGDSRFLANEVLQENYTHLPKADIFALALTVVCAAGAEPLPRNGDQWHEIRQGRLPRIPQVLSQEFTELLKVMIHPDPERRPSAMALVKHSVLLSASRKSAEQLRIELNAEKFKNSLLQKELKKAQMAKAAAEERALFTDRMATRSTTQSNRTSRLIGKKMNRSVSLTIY
T5 sequence (Q96SW2 whole entry): as the sequence (Q96SW2 whole entry) above
T5 sequence (Q16531 whole entry partner): as the sequence (Q16531 whole entry partner) above
T6 sequence (Q9UKT9 whole entry): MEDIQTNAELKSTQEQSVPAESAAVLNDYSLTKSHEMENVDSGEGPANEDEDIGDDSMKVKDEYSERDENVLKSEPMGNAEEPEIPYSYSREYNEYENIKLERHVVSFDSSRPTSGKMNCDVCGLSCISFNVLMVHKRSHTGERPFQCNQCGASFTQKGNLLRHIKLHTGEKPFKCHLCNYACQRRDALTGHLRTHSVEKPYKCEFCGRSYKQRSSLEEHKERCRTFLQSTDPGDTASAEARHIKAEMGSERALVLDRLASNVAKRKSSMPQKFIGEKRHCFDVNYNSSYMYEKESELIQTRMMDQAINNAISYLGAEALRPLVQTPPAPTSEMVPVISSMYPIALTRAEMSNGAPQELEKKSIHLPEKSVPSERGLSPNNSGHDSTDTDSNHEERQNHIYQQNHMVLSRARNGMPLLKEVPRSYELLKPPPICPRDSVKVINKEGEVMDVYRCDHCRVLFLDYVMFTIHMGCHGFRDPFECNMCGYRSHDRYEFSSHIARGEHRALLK
T6 sequence (Q96SW2 whole entry): as the sequence (Q96SW2 whole entry) above
T6 sequence (Q16531 whole entry partner): as the sequence (Q16531 whole entry partner) above
T4 sequence (Q13422 whole entry): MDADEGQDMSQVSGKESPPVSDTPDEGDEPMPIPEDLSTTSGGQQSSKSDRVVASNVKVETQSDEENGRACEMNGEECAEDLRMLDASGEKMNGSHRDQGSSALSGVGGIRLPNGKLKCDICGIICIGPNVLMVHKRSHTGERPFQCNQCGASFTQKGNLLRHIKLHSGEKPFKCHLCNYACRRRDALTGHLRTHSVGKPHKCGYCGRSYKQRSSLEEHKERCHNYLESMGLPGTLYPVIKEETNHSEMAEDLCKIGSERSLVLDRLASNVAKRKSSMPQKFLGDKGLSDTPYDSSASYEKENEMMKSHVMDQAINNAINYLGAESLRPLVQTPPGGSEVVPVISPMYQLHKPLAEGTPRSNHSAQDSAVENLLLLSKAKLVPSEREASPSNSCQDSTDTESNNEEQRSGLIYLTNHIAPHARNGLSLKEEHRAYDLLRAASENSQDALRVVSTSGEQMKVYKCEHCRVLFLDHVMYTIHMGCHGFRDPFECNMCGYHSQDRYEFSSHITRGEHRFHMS
T4 sequence (Q96SW2 whole entry): as the sequence (Q96SW2 whole entry) above
T4 sequence (Q16531 whole entry partner): as the sequence (Q16531 whole entry partner) above
T2 sequence (P15170 whole entry): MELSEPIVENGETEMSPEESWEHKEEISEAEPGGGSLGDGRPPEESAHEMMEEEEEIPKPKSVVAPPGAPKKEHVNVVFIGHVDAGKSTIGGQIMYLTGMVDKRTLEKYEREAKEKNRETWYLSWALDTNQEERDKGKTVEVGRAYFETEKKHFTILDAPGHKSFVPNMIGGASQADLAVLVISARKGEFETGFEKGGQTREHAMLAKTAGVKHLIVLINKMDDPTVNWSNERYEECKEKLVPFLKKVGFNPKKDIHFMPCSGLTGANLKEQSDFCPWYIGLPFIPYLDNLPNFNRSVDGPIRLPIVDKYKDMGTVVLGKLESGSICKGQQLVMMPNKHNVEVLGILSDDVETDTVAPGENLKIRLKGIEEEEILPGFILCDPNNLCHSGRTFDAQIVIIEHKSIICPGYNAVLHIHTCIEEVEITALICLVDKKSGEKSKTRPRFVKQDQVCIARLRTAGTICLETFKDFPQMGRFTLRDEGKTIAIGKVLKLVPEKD
T2 sequence (Q96SW2 whole entry): as the sequence (Q96SW2 whole entry) above
T2 sequence (Q16531 whole entry partner): as the sequence (Q16531 whole entry partner) above

| Compound | IKZF2 substrate protein remaining % (IKZF2; [1]) | GSPT1 substrate protein remaining % (GSPT1; [1]) | CK1a substrate protein remaining % (CK1α; [1]) | IKZF 1 substrate protein remaining % (IKZF1; [1]) | Weel substrate protein remaining % (WEE1; [1]) | IKZF3 substrate protein remaining % (IKZF3; [1]) | IKZF2 substrate protein remaining % (IKZF2; [2]) | GSPT1 substrate protein remaining % (GSPT1; [2]) | CK1a substrate protein remaining % (CK1α; [2]) | IKZF 1 substrate protein remaining % (IKZF1; [2]) | Weel substrate protein remaining % (WEE1; [2]) | IKZF3 substrate protein remaining % (IKZF3; [2]) |
| --- | --- | --- | --- | --- | --- | --- | --- | --- | --- | --- | --- | --- |
| Cc1cscc1C1=CCN(Cc2ccc3c(c2)C(=O)N(C2CCC(=O)NC2=O)C3=O)CC1 (stereo not drawn) [GT-06221, 2-(2,6-dioxopiperidin-3-yl)-5-((4-(4-methylthiophen-3-yl)-3,6-dihydropyridin-1(2H)-yl)methyl)isoindoline-1,3-dione] | A (0% ≤ substrate protein remaining % ≤ 80%) | A (0% ≤ substrate protein remaining % ≤ 80%) | A (0% ≤ substrate protein remaining % ≤ 80%) | A (0% ≤ substrate protein remaining % ≤ 80%) | A (0% ≤ substrate protein remaining % ≤ 80%) | A (0% ≤ substrate protein remaining % ≤ 80%) | – | – | – | – | – | – |
| O=C1CCC(N2C(=O)c3ccc(CN4CCC(c5cccs5)CC4)cc3C2=O)C(=O)N1 (stereo not drawn) [GT-06224, 2-(2,6-dioxopiperidin-3-yl)-5-((4-(thiophen-2-yl)piperidin-1-yl)methyl)isoindoline-1,3-dione] | B (80%< substrate protein remaining %≤ 100%) | A (0% ≤ substrate protein remaining % ≤ 80%) | A (0% ≤ substrate protein remaining % ≤ 80%) | A (0% ≤ substrate protein remaining % ≤ 80%) | A (0% ≤ substrate protein remaining % ≤ 80%) | A (0% ≤ substrate protein remaining % ≤ 80%) | – | – | – | – | – | – |
| O=C1CCC(N2C(=O)c3ccc(CN4CCC(N5CCCc6cc(F)ccc65)CC4)cc3C2=O)C(=O)N1 (stereo not drawn) [GT-06234, 2-(2,6-dioxopiperidin-3-yl)-5-((4-(6-fluoro-3,4-dihydroquinolin-1(2H)-yl)piperidin-1-yl)methyl)isoindoline-1,3-dione] | – | – | – | – | – | – | B (80%< substrate protein remaining %≤ 100%) | A (0% ≤ substrate protein remaining % ≤ 80%) | B (80%< substrate protein remaining %≤ 100%) | B (80%< substrate protein remaining %≤ 100%) | B (80%< substrate protein remaining %≤ 100%) | B (80%< substrate protein remaining %≤ 100%) |
| O=C1CCC(N2C(=O)c3ccc(CN4CCC(N5CCOc6cc(F)ccc65)CC4)cc3C2=O)C(=O)N1 (stereo not drawn) [GT-06235, 2-(2,6-dioxopiperidin-3-yl)-5-((4-(7-fluoro-2,3-dihydro-4H-benzo[b][1,4]oxazin-4-yl)piperidin-1-yl)methyl)isoindoline-1,3-dione] | – | – | – | – | – | – | B (80%< substrate protein remaining %≤ 100%) | A (0% ≤ substrate protein remaining % ≤ 80%) | B (80%< substrate protein remaining %≤ 100%) | B (80%< substrate protein remaining %≤ 100%) | B (80%< substrate protein remaining %≤ 100%) | B (80%< substrate protein remaining %≤ 100%) |
| O=C1CCC(N2C(=O)c3ccc(CN4CCC(N5C(=O)COc6cc(F)ccc65)CC4)cc3C2=O)C(=O)N1 (stereo not drawn) [GT-06236, 2-(2,6-dioxopiperidin-3-yl)-5-((4-(7-fluoro-3-oxo-2,3-dihydro-4H-benzo[b][1,4]oxazin-4-yl)piperidin-1-yl)methyl)isoindoline-1,3-dione] | – | – | – | – | – | – | A (0% ≤ substrate protein remaining % ≤ 80%) | A (0% ≤ substrate protein remaining % ≤ 80%) | B (80%< substrate protein remaining %≤ 100%) | B (80%< substrate protein remaining %≤ 100%) | B (80%< substrate protein remaining %≤ 100%) | B (80%< substrate protein remaining %≤ 100%) |
| O=C1CCC(N2C(=O)c3ccc(CN4CCC(C5CCOc6cc(F)ccc65)CC4)cc3C2=O)C(=O)N1 (stereo not drawn) [GT-06237, 2-(2,6-dioxopiperidin-3-yl)-5-((4-(7-fluorochroman-4-yl)piperidin-1-yl)methyl)isoindoline-1,3-dione] | – | – | – | – | – | – | B (80%< substrate protein remaining %≤ 100%) | A (0% ≤ substrate protein remaining % ≤ 80%) | B (80%< substrate protein remaining %≤ 100%) | B (80%< substrate protein remaining %≤ 100%) | B (80%< substrate protein remaining %≤ 100%) | B (80%< substrate protein remaining %≤ 100%) |
| Cc1cscc1N1CCN(Cc2ccc3c(c2)C(=O)N(C2CCC(=O)NC2=O)C3=O)CC1 (stereo not drawn) [GT-06260, 2-(2,6-dioxopiperidin-3-yl)-5-((4-(4-methylthiophen-3-yl)piperazin-1-yl)methyl)isoindoline-1,3-dione] | B (80%< substrate protein remaining %≤ 100%) | A (0% ≤ substrate protein remaining % ≤ 80%) | B (80%< substrate protein remaining %≤ 100%) | B (80%< substrate protein remaining %≤ 100%) | B (80%< substrate protein remaining %≤ 100%) | B (80%< substrate protein remaining %≤ 100%) | – | – | – | – | – | – |
| O=C1CCC(N2C(=O)c3ccc(CN4CC=C(c5ccsc5)CC4)cc3C2=O)C(=O)N1 (stereo not drawn) [GT-06261, 2-(2,6-dioxopiperidin-3-yl)-5-((4-(thiophen-3-yl)-3,6-dihydropyridin-1(2H)-yl)methyl)isoindoline-1,3-dione] | A (0% ≤ substrate protein remaining % ≤ 80%) | A (0% ≤ substrate protein remaining % ≤ 80%) | A (0% ≤ substrate protein remaining % ≤ 80%) | A (0% ≤ substrate protein remaining % ≤ 80%) | A (0% ≤ substrate protein remaining % ≤ 80%) | A (0% ≤ substrate protein remaining % ≤ 80%) | – | – | – | – | – | – |
| Cc1ccc(C2CCN(Cc3ccc4c(c3)C(=O)N(C3CCC(=O)NC3=O)C4=O)CC2)s1 (stereo not drawn) [GT-06262, 2-(2,6-dioxopiperidin-3-yl)-5-((4-(5-methylthiophen-2-yl)piperidin-1-yl)methyl)isoindoline-1,3-dione] | A (0% ≤ substrate protein remaining % ≤ 80%) | A (0% ≤ substrate protein remaining % ≤ 80%) | A (0% ≤ substrate protein remaining % ≤ 80%) | B (80%< substrate protein remaining %≤ 100%) | B (80%< substrate protein remaining %≤ 100%) | B (80%< substrate protein remaining %≤ 100%) | – | – | – | – | – | – |
